Entries after “also recorded” stand apart in the source; their conditions may differ.
Legend:
mTORC1 [1] = assay: mTORC1 activity in HEK293FT cells (WT and knockout lines), phosphorylation of S6K, 4E-BP1, Grb10, TFEB by immunoblot; assay type: cell-based, human
Method: Data represent the median fluorescence intensity of OPP Alexa Fluor 488; n = 6 biological replicates from two independent experiments. b,c,e,g,i,k,l, Data are the mean ± s.e.m. *P < 0.05, **P < 0.005, ***P < 0.0005. […] Source numerical data and unprocessed blots are provided. Source data
Amino-acid-starvation experiments were carried out as described before[42],[43]. […] For the lipid depletion experiments, cells were cultured in medium containing 10% charcoal-stripped FBS (A3382101, Thermo Fisher Scientific), instead of full FBS, for 24 h before treatments with FASN inhibitors were performed. For FA supplementation, each FA was first conjugated to 10% FA-free BSA (fraction V; cat. no. 10735086001, Roche) for 1 h at 50 °C in a 50:50 volumetric ratio. The BSA-conjugated C16:0, C16:1, C18:1 and C18:2 FAs (100 μM) were then added to the media both 16 h previous to and at the start of the treatment with FASN inhibitors.
For standard SDS–PAGE and immunoblotting experiments, cells from a well of a 12-well plate were lysed in 250 μl of ice-cold Triton lysis buffer (50 mM Tris pH 7.5, 1% Triton X-100, 150 mM NaCl, 50 mM NaF, 2 mM Na-vanadate and 0.011 g ml^−1 β-glycerophosphate) supplemented with 1×PhosSTOP phosphatase inhibitors (cat. no. 4906837001, Roche) and 1×cOmplete protease inhibitors (cat. no. 11836153001, Roche) for 10 min on ice. The samples were clarified by centrifugation (20,000g, 15 min, 4 °C) and the supernatants were boiled in 1×SDS sample buffer (5×SDS sample buffer: 350 mM Tris–HCl pH 6.8, 30% glycerol, 600 mM DTT, 12.8% SDS and 0.12% bromophenol blue). The band intensities were quantified using the ImageJ software.

mTORC1 [2] = target: T1, mTORC1 (Homo sapiens, UniProt P42345); assay: mTORC1 complex stability/composition, mTOR co-immunoprecipitation of Raptor and mLST8; conditions: 1 mM Mal-CoA added to cell lysates before immunoprecipitation
T1 construct: endogenous mTORC1 complexes were purified from HEK293FT cells; endogenous in cells; host or cells: HEK293FT (immunoprecipitation of endogenous mTOR); the 4E-BP1 substrate was made in E. coli BL21 RP
Method: For the mammalian endogenous protein co-immunoprecipitation experiments, cells of a near-confluent 10-cm dish were lysed in CHAPS IP buffer (50 mM Tris pH 7.5, 0.3% CHAPS detergent, 150 mM NaCl, 50 mM NaF, 2 mM Na-vanadate and 0.011 g ml^−1 β-glycerophosphate) supplemented with 1×PhosSTOP phosphatase inhibitors and 1×EDTA-free cOmplete protease inhibitors (11873580001, Roche) for 10 min on ice. The samples were clarified by centrifugation (20,000g, 15 min, 4 °C) and the supernatants were subjected to immunoprecipitation by the addition of 3 μl of each antibody, incubation at 4 °C with rotation for 3 h, followed by incubation (4 °C with rotation) with 30 μl of a pre-washed Protein A agarose bead slurry (cat. no. 11134515001, Roche) for an additional hour. The beads were then washed four times with CHAPS IP wash buffer (50 mM Tris pH 7.5, 0.3% CHAPS detergent, 150 mM NaCl and 50 mM NaF) and boiled in 1×SDS loading buffer. A portion of the samples was kept aside as the input before the addition of antibodies. The samples were analysed by SDS–PAGE and the presence of co-immunoprecipitated proteins was detected by immunoblotting with the appropriate specific antibodies.
To test whether Mal-CoA influences mTORC1 complex stability/composition, 1 mM Mal-CoA lithium salt solution was added to the lysates before the immunoprecipitation of mTOR, as described earlier. […]

Q: `CC(C)(COP(=O)(O)OP(=O)(O)OCC1OC(n2cnc3c(N)ncnc32)C(O)C1OP(=O)(O)O)C(O)C(=O)NCCC(=O)NCCSC(=O)CC(=O)O` (stereo not drawn) [Mal-CoA, malonyl-CoA] was tested. Which “p-S6K(T389)/S6K, Mean” value (mTORC1 [1]; ED Fig. 4n, relative to DMSO) did it give?
A: Its value is 0.5757.

Q: And the “mTORC1 activity after exogenous addition of Mal-CoA” value (mTORC1 [1]; HEK293FT, 250 μM Mal-CoA in medium, 30 min)?
A: The value was “significant drop; also recorded: capable of downregulating”.

Q: What about the “mTORC1 stability (interaction of mTOR with Raptor and mLST8)” value (mTORC1 [2]) of the same molecule?
A: The value was “did not influence”.

Source: PMC10495264 (Nature Cell Biology, 2023)
